Test results published in patent US20100203650A1, “BIOMOLECULE BINDING LIGANDS” (CAMBRIDGE ENTERPRISE LIMITED, priority 2007, published 2010).
Entries after “also recorded” stand apart in the source; their conditions may differ.

Biological target: T1, Factor VIII (Homo sapiens, UniProt P00451)
T1 construct: large-scale purification of a full-length recombinant Factor VIII
Test: Factor VIII microplate assay
Assay type: binding
Description: On the basis of the results obtained from the initial collection, additional ligands were prepared and screened in relation to Factor VIII binding and elution behaviour. These studies have been performed either using a simple microtitre plate assay (resin volume 40 μL/well) to determine approximate Factor VIII binding affinity followed by more detailed studies using gravity-flow packed resin columns (0.5 mL resin volume). These packed column studies are more accurate and allow simple experiments to be conducted to determine absolute resin affinity by gradual saturation of the column (200 μL, […]) and following the protein concentration in the eluate after serial addition of each factor VIII aliquot applied to the column. In this way, the binding can be established and elution behaviour of each ligand in parallel.

T1 sequence (P00451 20-2351): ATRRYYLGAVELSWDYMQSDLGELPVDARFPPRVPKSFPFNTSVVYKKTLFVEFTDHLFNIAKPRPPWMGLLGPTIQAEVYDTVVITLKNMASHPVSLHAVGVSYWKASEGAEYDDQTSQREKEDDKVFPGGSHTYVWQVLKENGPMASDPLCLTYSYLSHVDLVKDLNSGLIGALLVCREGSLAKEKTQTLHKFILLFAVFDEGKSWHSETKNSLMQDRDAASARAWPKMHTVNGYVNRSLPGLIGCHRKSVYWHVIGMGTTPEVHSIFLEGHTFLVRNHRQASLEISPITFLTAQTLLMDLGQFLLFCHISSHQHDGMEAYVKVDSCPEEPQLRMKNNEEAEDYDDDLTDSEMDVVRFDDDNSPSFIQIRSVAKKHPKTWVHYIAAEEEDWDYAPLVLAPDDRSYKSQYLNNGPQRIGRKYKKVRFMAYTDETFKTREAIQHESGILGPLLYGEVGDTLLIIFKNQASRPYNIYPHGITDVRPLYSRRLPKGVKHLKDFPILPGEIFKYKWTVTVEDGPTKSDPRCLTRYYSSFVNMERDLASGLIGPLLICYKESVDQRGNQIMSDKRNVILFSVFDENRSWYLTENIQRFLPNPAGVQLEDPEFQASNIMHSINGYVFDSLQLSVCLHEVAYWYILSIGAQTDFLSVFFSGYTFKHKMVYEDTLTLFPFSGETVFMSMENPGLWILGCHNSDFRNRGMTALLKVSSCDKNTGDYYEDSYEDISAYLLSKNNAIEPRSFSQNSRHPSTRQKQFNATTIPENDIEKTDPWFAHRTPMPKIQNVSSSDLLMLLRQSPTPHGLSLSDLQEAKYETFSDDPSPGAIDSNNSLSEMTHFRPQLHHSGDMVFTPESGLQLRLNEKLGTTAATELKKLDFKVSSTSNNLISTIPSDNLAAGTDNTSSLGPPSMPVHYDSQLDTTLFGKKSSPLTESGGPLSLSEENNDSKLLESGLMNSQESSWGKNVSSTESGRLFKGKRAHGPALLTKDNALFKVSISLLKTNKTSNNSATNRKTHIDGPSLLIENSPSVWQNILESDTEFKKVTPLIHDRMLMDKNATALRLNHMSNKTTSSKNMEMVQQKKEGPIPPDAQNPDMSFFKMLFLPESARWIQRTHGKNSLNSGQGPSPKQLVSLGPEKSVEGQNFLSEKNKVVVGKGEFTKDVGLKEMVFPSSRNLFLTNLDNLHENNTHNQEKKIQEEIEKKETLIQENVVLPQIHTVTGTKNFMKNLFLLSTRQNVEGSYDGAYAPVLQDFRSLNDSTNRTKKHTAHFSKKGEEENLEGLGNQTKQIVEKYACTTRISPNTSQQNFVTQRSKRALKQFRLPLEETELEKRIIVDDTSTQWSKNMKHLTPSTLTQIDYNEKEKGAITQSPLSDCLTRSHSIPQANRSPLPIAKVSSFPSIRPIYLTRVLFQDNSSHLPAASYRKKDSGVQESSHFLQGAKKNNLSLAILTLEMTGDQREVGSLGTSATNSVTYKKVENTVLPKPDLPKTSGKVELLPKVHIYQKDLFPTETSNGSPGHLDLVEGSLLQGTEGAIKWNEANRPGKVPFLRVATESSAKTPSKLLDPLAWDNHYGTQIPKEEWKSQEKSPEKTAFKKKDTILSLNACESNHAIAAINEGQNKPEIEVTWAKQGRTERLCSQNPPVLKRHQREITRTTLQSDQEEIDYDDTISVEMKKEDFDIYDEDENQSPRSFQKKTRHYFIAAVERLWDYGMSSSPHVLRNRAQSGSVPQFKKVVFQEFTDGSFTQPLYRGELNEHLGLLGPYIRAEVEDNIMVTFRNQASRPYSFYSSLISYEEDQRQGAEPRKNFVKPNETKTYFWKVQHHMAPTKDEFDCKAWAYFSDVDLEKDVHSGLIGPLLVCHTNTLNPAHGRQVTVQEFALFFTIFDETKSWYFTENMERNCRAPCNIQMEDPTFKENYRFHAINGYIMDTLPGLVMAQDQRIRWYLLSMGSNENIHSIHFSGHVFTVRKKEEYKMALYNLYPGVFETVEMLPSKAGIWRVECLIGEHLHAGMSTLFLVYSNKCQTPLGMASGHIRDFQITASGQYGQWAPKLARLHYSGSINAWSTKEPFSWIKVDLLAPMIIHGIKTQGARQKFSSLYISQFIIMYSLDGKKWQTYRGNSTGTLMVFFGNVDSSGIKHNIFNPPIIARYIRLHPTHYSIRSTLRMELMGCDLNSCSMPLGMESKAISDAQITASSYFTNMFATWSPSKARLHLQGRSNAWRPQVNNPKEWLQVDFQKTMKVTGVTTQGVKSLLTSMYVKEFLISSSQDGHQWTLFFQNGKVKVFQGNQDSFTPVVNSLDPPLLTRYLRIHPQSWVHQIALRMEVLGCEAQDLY

Factor VIII Bound (initial collection U1-U4 and comparison ligand): 106.3 µg/mL
SMILES: COC(=O)c1cccc(Nc2nc(C)nc(Nc3cccc4c(S(=O)(=O)OC)cccc34)n2)c1 [34/43]
Factor VIII binding (in words): strongest Factor VIII binding and elution characteristics; also recorded: one of the highest Factor VIII binding potential
